The values that follow come from publication doi:10.1101/2020.09.06.284752v1 (biorxiv, 2020).

One assay has as its target T1, recombinant human PFKM (Homo sapiens, UniProt P08237).
T1 sequence (P08237 2-780): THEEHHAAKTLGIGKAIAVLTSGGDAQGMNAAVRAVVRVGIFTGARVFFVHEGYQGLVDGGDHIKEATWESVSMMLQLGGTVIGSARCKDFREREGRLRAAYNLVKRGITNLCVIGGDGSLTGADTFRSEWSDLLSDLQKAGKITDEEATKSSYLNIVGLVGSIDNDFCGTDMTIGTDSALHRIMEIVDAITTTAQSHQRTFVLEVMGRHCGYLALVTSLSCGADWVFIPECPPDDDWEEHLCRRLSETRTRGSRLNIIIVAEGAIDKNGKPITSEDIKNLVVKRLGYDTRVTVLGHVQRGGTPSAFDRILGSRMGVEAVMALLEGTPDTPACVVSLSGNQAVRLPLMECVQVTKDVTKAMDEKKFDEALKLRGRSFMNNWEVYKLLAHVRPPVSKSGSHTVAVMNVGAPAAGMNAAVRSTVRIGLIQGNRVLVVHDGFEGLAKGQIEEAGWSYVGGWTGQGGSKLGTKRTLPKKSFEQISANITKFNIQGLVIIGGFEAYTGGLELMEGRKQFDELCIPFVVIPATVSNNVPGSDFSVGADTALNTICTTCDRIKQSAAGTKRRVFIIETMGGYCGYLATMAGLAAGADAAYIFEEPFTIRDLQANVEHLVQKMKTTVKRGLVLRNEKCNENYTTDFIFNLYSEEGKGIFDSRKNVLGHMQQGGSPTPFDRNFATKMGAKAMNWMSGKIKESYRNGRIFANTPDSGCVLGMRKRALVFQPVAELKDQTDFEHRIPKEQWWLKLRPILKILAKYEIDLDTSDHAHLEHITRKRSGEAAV
Briefly: PFKM enzymatic activity inhibition. The format is biochemical.

The target of another assay is T2, recombinant PFKL (Homo sapiens, UniProt P17858).
T2 sequence (P17858 2-780): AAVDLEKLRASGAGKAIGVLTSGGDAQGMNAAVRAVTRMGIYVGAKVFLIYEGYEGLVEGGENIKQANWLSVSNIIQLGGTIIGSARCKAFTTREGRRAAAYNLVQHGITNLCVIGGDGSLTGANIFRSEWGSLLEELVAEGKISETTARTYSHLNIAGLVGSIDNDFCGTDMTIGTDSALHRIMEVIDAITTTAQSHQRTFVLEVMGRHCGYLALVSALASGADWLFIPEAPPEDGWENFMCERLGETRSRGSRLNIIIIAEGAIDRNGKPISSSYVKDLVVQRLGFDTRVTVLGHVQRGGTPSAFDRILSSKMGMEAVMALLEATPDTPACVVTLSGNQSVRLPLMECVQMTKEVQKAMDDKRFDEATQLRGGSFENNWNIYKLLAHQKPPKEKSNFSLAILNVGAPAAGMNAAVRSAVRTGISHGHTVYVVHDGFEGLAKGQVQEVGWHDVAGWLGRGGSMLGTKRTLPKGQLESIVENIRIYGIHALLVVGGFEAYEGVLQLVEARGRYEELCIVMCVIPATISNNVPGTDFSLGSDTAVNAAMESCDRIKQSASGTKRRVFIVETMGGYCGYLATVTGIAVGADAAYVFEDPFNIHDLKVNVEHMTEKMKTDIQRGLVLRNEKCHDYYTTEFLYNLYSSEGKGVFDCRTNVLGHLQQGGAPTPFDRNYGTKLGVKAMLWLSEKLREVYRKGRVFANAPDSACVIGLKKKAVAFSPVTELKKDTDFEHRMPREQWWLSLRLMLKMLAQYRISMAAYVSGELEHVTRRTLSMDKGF
Briefly: PFKL enzymatic activity inhibition. The format is biochemical.

Turning to `C#CCNC(=O)[C@]1(C)CC[C@]2(C)CC[C@]3(C)C4=CC=C5C(=CC(=O)C(O)=C5C)[C@]4(C)CC[C@@]3(C)[C@@H]2C1` [1-85], the IC50 (in general, the concentration that inhibits the measured activity by half) on recombinant human PFKM turned out to be 507 nM.
Turning to `CC1=C(O)C(=O)C=C2C1=CC=C1[C@@]2(C)CC[C@@]2(C)[C@@H]3C[C@](C)(C(=O)O)CC[C@]3(C)CC[C@]12C` [celastrol], the concentration for half-maximal inhibition (IC50) worked out at 916 ± 35.7 nM at recombinant PFKL and 349 nM on recombinant human PFKM.
Consider `O=C(c1cccs1)c1no[n+]([O-])c1C(=O)c1cccs1` [3-79], for which, at recombinant human PFKM, the half-inhibitory concentration (IC50) amounted to 292 ± 20.8 nM.
